Laboratory results as given in patent US20240124424A1, “SOLID FORMS OF (5S)-CYCLOPROPYL-5-[3-[(3S)-4-(3,5-DIFLUOROPHENYL)-3-METHYL-PIPERAZIN-1-YL]-3-OXO-PROPYL]IMIDAZOLIDINE-2,4-DIONE” (Galapagos NV, priority 2020, published 2024).
Values joined by “and” are separate entries in the source; they are usually repeats but may differ in a detail not shown here. Equal entries are not always repeated.

What was measured:
[1] = Stability study of the solid forms; assay type: physicochemical; conditions: for Stability of solid forms under different conditions: result in words
Balb/c mice = experiment: Protein overload nephrectomy model; assay type: in vivo; conditions: day 14, individual mice, Cpd 1 240 mg/kg/day b.i.d. or lisinopril 10 mg/kg/day, oral gavage; for proteinuria / urine creatinine: 24 h urine; for Protein/creatinine: urine ratio
Method: This animal model allows to assess the efficacy of the compound of the invention in renal disease, including renal fibrosis.
This study was undertaken in Balb/c mice (Charles River).
Mice underwent a left unilateral nephrectomy via a short flank incision under anaesthesia.
Sham control mice received an incision only . The mice were allowed to recover from surgery for 7 days.
Drug treatment commenced one day prior to initiation of protein overload.
Each mouse received either Cpd 1 240 mg/kg/day b.i.d. (dosed daily at 8h00 and 15h30), or 10 mg/kg/day Lisinopril (one dose Lisinopril plus one dose of vehicle), or vehicle alone (0.5% methyl cellulose containing 2% Tween 80—two doses) by oral gavage.
Sham mice received vehicle alone. Protein overload was initiated by daily intraperitoneal injections of sterile filtered 450 mg/ml BSA solution in saline (Sigma cat A4919: low endotoxin) starting from 2 mg/g body weight on day one and increasing to 15 mg/g on day 7 until day 14 according to schedule below:
Sham mice received equivalent volumes of saline. After the last injection, mice were housed in metabolic cages for 24 h urine collection.
The mice were then anaesthetized before sacrifice. Blood sample was collected. The remaining right kidneys were perfused with PBS (Sigma 806552)+10 mM EDTA (Invitrogen 15575-02—stock 0.5M) after which they were excised and transverse dissected.
All data were expressed as means±SEM. Results were analysed using GraphPad Prism 8. D'Agostino-Pearson omnibus normality tests were performed to assess normality for data sets >8, while a Shapiro-Wilk test was applied to data sets <8. For multiple comparisons, a one-way ANOVA with Tukey's post hoc correction (parametric) or a Kruskal-Wallis test with Dunn's post hoc test (non-parametric data) were used. ELISA standard curves were plotted using a Sigmoidal4PL fit where x was the log of the standard concentration. Relative mRNA expression levels were calculated according to the Livak equation as 2-ΔCt. A confidence interval of 0.95, p≤0.05, was applied for all statistical tests.
The following endpoints were measured: • Urine Protein concentration mg/mL, • Urine protein/mg creatinine (mg/mg) • serum protein concentration (mg/mL), • urine creatinine concentration (mg/dL)(mg/mL) • Serum creatinine concentration (mg/dL) • Serum urea concentration (mg/dL) • Versikine, NITEGE, ARGS dot blots • Immunohistochemistry: ADAMTS5, Collagen I, Collagen IV, fibronectin, CD45, complement C3, F4/80

BALB/c (H2^d) mice = experiment: Graft versus host (cGvHD) lung model; assay type: in vivo; conditions: 120 mg/kg p.o. b.i.d., statistically significant
Text: In this cGvHD model, fibrosis was induced in BALB/c (H2^d) mice by allogeneic transplantation of bone marrow cells and splenocytes from B10.D2 (H2^d) donor mice (minor HLA mismatch). The recipient mice develop inflammation-driven dermal and pulmonary fibrosis resembling patients with rapidly progressive diffuse cutaneous systemic sclerosis (Zen et al., 2012).
The treatment was provided only after the onset of first clinical symptoms of sclerodermatous cGvHD.
The following groups with each eight mice were used in this study • Syngeneically transplanted, placebo-treated control group: Syngeneic bone marrow and splenocyte transplantation (BALB/c (H2^d)→BALB/c (H2^d)). Application of methyl cellulose 0.5% from day 21 to day 56 post transplantation. • Vehicle-treated fibrosis group: Allogeneic bone marrow and splenocyte transplantation (B10.D2 (H2^d)→BALB/c (H2^d)). Application of methyl cellulose 0.5% from day 21 to day 56 post transplantation • Control group to assess pretreatment levels of fibrosis induced by allogeneic transplantation: Allogeneic bone marrow and splenocyte transplantation (B10.D2 (H2^d)→BALB/c (H2^d)). Sacrifice at day 21, before treatment was initiated in the other groups. • Treatment group: Allogeneic bone marrow and splenocyte transplantation (B10.D2 (H2^d)→BALB/c (H2^d)). Application of a test compound of the invention from day 21 to day 56 post transplantation. • Positive control group: Allogeneic bone marrow and splenocyte transplantation (B10.D2 (H2^d)→BALB/c (H2^d)). Application of 50 mg/kg qd nintedanib from day 21 to day 56 post transplantation.
Animals were sacrificed 2 h post last dose, and samples of skin (3 mm punch biopsies), lung, spleen and blood were collected for histology and gene expression analysis.
The anti-fibrotic effects on skin were analysed by determination of dermal thickness, quantification of lesional collagen and staining for myofibroblasts.
In case of positive effects on skin fibrosis, effects on pulmonary fibrosis were analysed by Ashcroft scoring, hydroxyproline content, and quantification of the collagen covered area using Sirius red staining
Based on individual animal raw data, the means for each group were determined and percent change from disease controls was calculated. Treatment groups were compared to disease controls using a one-way analysis of variance (1-way ANOVA) with a Dunnett's post-hoc analysis for measured (parametric) data or a Kruskal-Wallis test with a Dunn's post-hoc analysis for scored (non-parametric) data.

mdx mice = experiment: Duchenne muscular dystrophy mdx model; assay type: in vivo; design: Average force output (grip strength) / Tissue volume / Bone volume: unit not given here; conditions: mean, Cpd 1 120 mg/kg p.o. b.i.d., prednisolone 5 mg/kg p.o. qd; for Av. g/g BW (average force output/g of body weight) / Average force output (grip strength): n = 15
Text: The male mdx mice is the most used animal model for pre-clinical Duchenne muscular dystrophy (DMD) research.
Five-week-old mdx mice (Animal Resource Centre; Perth, WA, Australia) were allowed to acclimatise for 1 week to their surroundings, before being randomly allocated to one of four treatment groups or an untreated control group (15 animals per group) as described in the table below. At the start of the study, these groups were matched for mouse body weight.
The untreated control mdx mice were restrained throughout the study. Following 1-week acclimatisation, this group of mice also have baseline measurements of grip strength and body composition taken, which were repeated at ˜10 weeks and ˜15 weeks of age. Furthermore, these mice were weighed on a regular basis and their urine was collected at ˜6, ˜10 and ˜15 weeks of age. […]
Bone structure was evaluated via μCT analysis of cortical and trabecular bone on the femur.

[2] = PK study in human, tablets of Form I and Form II; assay type: in vivo; conditions: fasted, 300 mg oral
Method: Following a single 300 mg oral administration of Cpd 1 under fasted and/or fed conditions to healthy male subjects (18 subjects per group) as 30% or 50% drug load tablets of crystalline form I and crystalline form II, concentrations of Cpd 1 human plasma concentrations were determined using protein precipitation extraction with liquid chromatography with tandem mass spectrometry (LC-MS/MS) detection.
The lower limit of quantification was 1 ng/mL. In each analytical run, duplicate QC samples were analyzed along with the study samples.
Blood samples (2 mL) for determination of Cpd 1 in plasma were collected at various time points into tubes containing lithium heparin and were immediately chilled (ice bath). Within 30 min after blood collection, the plasma was separated in a refrigerated centrifuge at 4° C. for 10 min at circa 1,500 g.
Predose PK samples were collected within 15 min predose then at the following time points: 0.5 h, 1 h, 1.5 h, 2 h, 2.5 h, 3 h, 4 h, 5 h, 6 h, 8 h, 12 h, 16 h, 24 h, 48 h, 72 h. For all PK samples between 0.5 and 16 h, a window of ±5 min was allowed; for 24- to 72-h samples, a window of ±30 min was allowed.
All statistical analyses were performed using SAS® version 9.4 (or higher) (SAS Institute, Cary, NC, USA) and/or Phoenix WinNonLin (version 8 or higher) software.
All relevant data were documented using summary tables, figures, and subject data listings. […]

[3] = storage 25° C./60% RH - 12 months
[4] = storage 40° C./75% RH - 6 months

| SMILES | Stability of solid forms under different conditions [1] | Stability [1, 3] [%] | Stability [1, 4] [%] | proteinuria (Balb/c mice) | urine creatinine (Balb/c mice) | serum creatinine (Balb/c mice) | Protein/creatinine (Balb/c mice) | BV/TV (bone volume fraction) (mdx mice; after treatment) [%] | Bone volume (mdx mice; after treatment) | Av. g/g BW (average force output/g of body weight) (mdx mice; mid treatment (4 weeks)) [g/g] | Average force output (grip strength) (mdx mice; mid treatment (4 weeks)) | Av. g/g BW (average force output/g of body weight) (mdx mice; post treatment (9 weeks)) [g/g] | Average force output (grip strength) (mdx mice; post treatment (9 weeks)) | Av. g/g BW (average force output/g of body weight) (mdx mice; pre-treatment) [g/g] | Average force output (grip strength) (mdx mice; pre-treatment) | also measured |
| --- | --- | --- | --- | --- | --- | --- | --- | --- | --- | --- | --- | --- | --- | --- | --- | --- |
| C[C@H]1CN(C(=O)CC[C@@]2(C3CC3)NC(=O)NC2=O)CCN1c1cc(F)cc(F)c1 [Form I, (5S)-cyclopropyl-5-[3-[(3S)-4-(3,5-difluorophenyl)-3-methyl-piperazin-1-yl]-3-oxo-propyl]imidazolidine-2,4-dione] | stable | 100 | 100 |  |  |  |  |  |  |  |  |  |  |  |  |  |
| C[C@H]1CN(C(=O)CC[C@@]2(C3CC3)NC(=O)NC2=O)CCN1c1cc(F)cc(F)c1 [Cpd 1, (5S)-cyclopropyl-5-[3-[(3S)-4-(3,5-difluorophenyl)-3-methyl-piperazin-1-yl]-3-oxo-propyl]imidazolidine-2,4-dione] |  |  |  | 75.2 mg/mL and 54.7 mg/mL and 187 mg/mL and 79.4 mg/mL and 145 mg/mL and 72.4 mg/mL and 143.5 mg/mL and 229.6 mg/mL and 163 mg/mL and 44.4 mg/mL | 0.33 mg/mL and 0.34 mg/mL and 0.38 mg/mL and 0.25 mg/mL (2×) and 0.29 mg/mL and 0.26 mg/mL and 0.297 mg/mL and 0.384 mg/mL and 0.28 mg/mL | 0.43 mg/dL and 0.4 mg/dL and 0.47 mg/dL and 0.44 mg/dL and 0.41 mg/dL and 0.46 mg/dL and 0.39 mg/dL and 0.38 mg/dL and 0.3 mg/dL and 0.37 mg/dL | 229 and 160 and 497 and 321 and 581 and 250 and 550 and 774 and 425 and 159 | 36.09 | 0.80 | 3.72 | 91.88 | 3.86 | 88.24 | 2.86 | 61.13 | reduction of Hydroxyproline content in skin (BALB/c (H2^d) mice): −8.3%; decrease of Ashcroft score compared to the vehicle group (BALB/c (H2^d) mice; lung): −1,3 fold; decrease of collagen-covered lung area compared to the vehicle group (BALB/c (H2^d) mice; lung): −1,2 fold; reduction of myofibroblast count (BALB/c (H2^d) mice; skin): −35%; Tissue volume (mdx mice; after treatment): 2.21 |
| C[C@]12C=CC(=O)C=C1CC[C@@H]1[C@@H]2[C@@H](O)C[C@@]2(C)[C@H]1CC[C@]2(O)C(=O)CO [prednisolone, reference compound] |  |  |  |  |  |  |  | 29.84 | 0.70 | 3.44 | 84.86 | 2.93 | 78.84 | 2.83 | 60.55 |  |
| C[C@H]1CN(C(=O)CC[C@@]2(C3CC3)NC(=O)NC2=O)CCN1c1cc(F)cc(F)c1 [Form II, (5S)-cyclopropyl-5-[3-[(3S)-4-(3,5-difluorophenyl)-3-methyl-piperazin-1-yl]-3-oxo-propyl]imidazolidine-2,4-dione] | stable | 99.3 | 98.7 |  |  |  |  |  |  |  |  |  |  |  |  | increase in plasma peak exposure (Cmax) compared to polymorphic form I ([2]; 30% load tablet): 34%; increase in plasma peak exposure (Cmax) compared to polymorphic form I ([2]; 50% load tablet): 40% |
| NCCCC[C@H](N[C@@H](CCc1ccccc1)C(=O)O)C(=O)N1CCC[C@H]1C(=O)O [lisinopril, reference compound] |  |  |  | 59.1 mg/mL and 128.8 mg/mL and 55.8 mg/mL and 197.6 mg/mL and 71.7 mg/mL and 264.6 mg/mL and 284 mg/mL and 82.1 mg/mL and 80 mg/mL and 79 mg/mL | 0.467 mg/mL and 0.378 mg/mL and 0.32 mg/mL and 0.36 mg/mL and 0.3 mg/mL and 0.34 mg/mL and 0.41 mg/mL and 0.38 mg/mL and 0.22 mg/mL and 0.42 mg/mL | 0.39 mg/dL and 0.41 mg/dL and 0.34 mg/dL and 0.35 mg/dL and 0.25 mg/dL and 0.57 mg/dL (2×) and 0.46 mg/dL and 0.55 mg/dL and 0.54 mg/dL | 127 and 341 and 174 and 552 and 238 and 774 and 700 and 216 and 364 and 188 |  |  |  |  |  |  |  |  |  |
| C[C@H]1CN(C(=O)CC[C@@]2(C3CC3)NC(=O)NC2=O)CCN1c1cc(F)cc(F)c1 [Amorphous, (5S)-cyclopropyl-5-[3-[(3S)-4-(3,5-difluorophenyl)-3-methyl-piperazin-1-yl]-3-oxo-propyl]imidazolidine-2,4-dione] | stable | 100 | 99.3 |  |  |  |  |  |  |  |  |  |  |  |  |  |
